The results in this text go back to patent US7776883B2, “Quinolin-4-ones as inhibitors of retroviral integrase for the treatment of HIV, AIDS and AIDS related complex (ARC)” (The United States of America as represented by the …, priority 2004, dated 2010).

SMILES strings stand for the structures.

Consider `O=C(O)C(=O)CC(=O)c1cn(Cc2ccc3ccccc3c2)c2ccccc2c1=O` [RDS1975, 4-[1-(2-Naphthyl)methyl-1,4-dihydro-4-oxoquinolin-3-yl]-2,4-dioxobutanoic acid], for which the melting point (in general, the temperature, or range, at which the solid turns liquid) lay in the range of 212 to 213 °C.
To `CCOC(=O)C(=O)CC(=O)c1c[nH]c2ccccc2c1=O` [RDS1675, 4-(1,4-dihydro-4-oxoquinolin-3-yl)-2,4-dioxobutanoic acid ethyl ester] belongs 235 to 237 °C.
Next, `CCOC(=O)C(=O)CC(=O)c1cn(Cc2ccc3ccccc3c2)c2ccccc2c1=O` [RDS1974, 4-[α-(2-Naphthyl)methyl-1,4-dihydro-4-oxoquinolin-3-yl]-2,4-dioxobutanoic acid ethyl ester]: 153 to 154 °C; `CCOC(=O)C(=O)CC(=O)c1cn(Cc2ccc(F)cc2)c2c(F)cccc2c1=O`: 179 to 180 °C.
Next, `O=C(O)C(=O)CC(=O)c1cn(Cc2ccc([N+](=O)[O-])cc2)c2ccccc2c1=O` [RDS2018, 4-[1-(4-Nitrophenyl)methyl-1,4-dihydro-4-oxoquinolin-3-yl]-2,4-dioxobutanoic acid]: 230 to 232 °C; `O=C(O)C(=O)CC(=O)c1cn(Cc2ccc(F)cc2)c2c(F)cccc2c1=O`: 180 to 181 °C.
`O=C(O)C(=O)CC(=O)c1cn(Cc2ccc(F)cc2)c2c(Cl)cccc2c1=O` returned a melting point of 175 to 177 °C.
In turn, `O=C(O)C(=O)CC(=O)c1cn(Cc2ccc(F)cc2)c2cc(Cl)c(Cl)cc2c1=O` gave a melting point of 175 to 177 °C.
Next, `O=C(O)C(=O)CC(=O)c1c[nH]c2ccccc2c1=O` [RDS1680, 4-(1,4-dihydro-4-oxoquinolin-3-yl)-2,4-dioxobutanoic acid]: above 290 °C; `CCOC(=O)C(=O)CC(=O)c1cn(Cc2ccccc2F)c2cc(Cl)ccc2c1=O`: 173 to 175 °C; `CCOC(=O)C(=O)CC(=O)c1cn(Cc2ccc(O)cc2)c2ccccc2c1=O`: 179 to 181 °C.
Next, `COc1ccccc1Cn1cc(C(=O)CC(=O)C(=O)O)c(=O)c2ccccc21`: 173 to 175 °C; `O=C(O)C(=O)CC(=O)c1cn(Cc2ccccc2F)c2ccccc2c1=O` [RDS1990, 4-[1-(2-Fluorophenyl)methyl-1,4-dihydro-4-oxoquinolin-3-yl]-2,4-dioxobutanoic acid]: 172 to 174 °C; `CCOC(=O)C(=O)CC(=O)c1cn(Cc2ccc(OC)cc2)c2ccccc2c1=O` [RDS2034, 4-[1-(4-Methoxyphenyl)methyl-1,4-dihydro-4-oxoquinolin-3-yl]-2,4-dioxobutanoic acid ethyl ester]: 154 to 156 °C.
Next, `CCOC(=O)C(=O)CC(=O)c1cn(Cc2ccccc2F)c2ccccc2c1=O` [RDS1989, 4-[1-(2-Fluorophenyl)methyl-1,4-dihydro-4-oxoquinolin-3-yl]-2,4-dioxobutanoic acid ethyl ester]: 152 to 153 °C; `O=C(O)C(=O)CC(=O)c1cn(Cc2cccc(F)c2)c2ccccc2c1=O` [RDS1987, 4-[1-(3-Fluorophenyl)methyl-1,4-dihydro-4-oxoquinolin-3-yl]-2,4-dioxobutanoic acid]: 158 to 159 °C; `O=C(O)C(=O)CC(=O)c1cn(Cc2ccc3ccccc3n2)c2ccccc2c1=O` [RDS2000, 4-[1-(2-Quinolinyl)methyl-1,4-dihydro-4-oxoquinolin-3-yl]-2,4-dioxobutanoic acid]: above 300 °C.
With `O=C(O)C(=O)CC(=O)c1cn(Cc2c(F)cccc2F)c2ccccc2c1=O` [RDS1984, 4-[1-(2,6-Difluorophenyl)methyl-1,4-dihydro-4-oxoquinolin-3-yl]-2,4-dioxobutanoic acid], the melting point was 171 to 172 °C.
In turn, `CCOC(=O)C(=O)CC(=O)c1cn(Cc2cccc(OC)c2)c2ccccc2c1=O` came in with a melting point of 177 to 179 °C.
Next, `O=C(O)C(=O)CC(=O)c1cn(Cc2ccc(O)cc2)c2ccccc2c1=O`: 206 to 208 °C; `CCOC(=O)C(=O)CC(=O)c1cn(Cc2ccc(F)cc2)c2c(Cl)cccc2c1=O`: 164 to 165 °C; `CCOC(=O)C(=O)CC(=O)c1cn(Cc2ccc([N+](=O)[O-])cc2)c2ccccc2c1=O` [RDS2017, 4-[1-(4-Nitrophenyl)methyl-1,4-dihydro-4-oxoquinolin-3-yl]-2,4-dioxobutanoic acid ethyl ester]: 175 to 176 °C.
To `COc1ccc(Cn2cc(C(=O)CC(=O)C(=O)O)c(=O)c3ccccc32)cc1` [RDS2035, 4-[1-(4-Methoxyphenyl)methyl-1,4-dihydro-4-oxoquinolin-3-yl]-2,4-dioxobutanoic acid] belongs 149 to 150 °C.
Next, `CCOC(=O)C(=O)CC(=O)c1cn(Cc2ccc(F)cc2)c2ccc(F)cc2c1=O` [RDS2077, 4-[1-(4-Fluorophenyl)methyl-6-fluoro-1,4-dihydro-4-oxoquinolin-3-yl]-2,4-dioxobutanoic acid ethyl ester]: 152 to 153 °C; `O=C(O)C(=O)CC(=O)c1cn(Cc2ccc(F)cc2)c2cc(F)ccc2c1=O` [RDS2022, 4-[1-(4-Fluorophenyl)methyl-7-fluoro-1,4-dihydro-4-oxoquinolin-3-yl]-2,4-dioxobutanoic acid]: 162 to 163 °C; `O=C(O)C(=O)CC(=O)c1cn(Cc2ccccc2F)c2cc(Cl)ccc2c1=O`: 187 to 189 °C.
The molecule `CCOC(=O)C(=O)CC(=O)c1ccc2c(c1)c(=O)c(CCC(=O)O)cn2Cc1ccc(F)cc1` displayed a melting point of 177 to 180 °C.
To `O=C(O)C(=O)CC(=O)c1cn(Cc2ccccc2)c2ccccc2c1=O` [RDS1993, 4-(1-Phenylmethyl-1,4-dihydro-4-oxoquinolin-3-yl)-2,4-dioxobutanoic acid] belongs 141 to 142 °C.
`CCOC(=O)C(=O)CC(=O)c1cn(Cc2ccccc2)c2ccccc2c1=O` [RDS1992, 4-(1-Phenylmethyl-1,4-dihydro-4-oxoquinolin-3-yl)-2,4-dioxobutanoic acid ethyl ester] gave a melting point of 141 to 142 °C.
Next, `CCOC(=O)C(=O)CC(=O)c1cn(Cc2c(F)cccc2F)c2ccccc2c1=O` [RDS1983, 4-[1-(2,6-Difluorophenyl)methyl-1,4-dihydro-4-oxoquinolin-3-yl]-2,4-dioxobutanoic acid ethyl ester]: 172 to 173 °C; `O=C(O)C(=O)CC(=O)c1cn(CCCCc2ccccc2)c2ccccc2c1=O` [RDS1981, 4-[1-(4-Phenylbutyl)-1,4-dihydro-4-oxoquinolin-3-yl]-2,4-dioxobutanoic acid]: 136 to 138 °C.
Next, `CCOC(=O)C(=O)CC(=O)c1cn(Cc2cccc(F)c2)c2ccccc2c1=O` [RDS1986, 4-[1-(3-Fluorophenyl)methyl-1,4-dihydro-4-oxoquinolin-3-yl]-2,4-dioxobutanoic acid ethyl ester]: 174 to 175 °C; `CCOC(=O)C(=O)CC(=O)c1cn(Cc2ccc(F)cc2)c2cc(F)ccc2c1=O` [RDS2021, 4-[1-(4-Fluorophenyl)methyl-7-fluoro-1,4-dihydro-4-oxoquinolin-3-yl]-2,4-dioxobutanoic acid ethyl ester]: 151 to 152 °C.
